This note sets out measurements from patent US20140065103A1 (VERTEX PHARMACEUTICALS INCORPORATED, priority 2010, published 2014).

Data set [1] concerns HCV sub-genomic replicon of genotype 1a in replicon cell line W11.8. In words: microbe, parasite or virus in culture. As to conditions: read-out: HCV-Replicon-ELISA-1a IC50. In kind it is cell-based, Hepatitis C virus. (Replicon systems follow genome replication, usually without infectious particles.)
Data set [2] concerns Huh-7 ET, Molt-4, DU-145, Hep-G2 and SH-SY5Y cells. Nature of the data set: [3H]Thymidine incorporation assay (cytotoxicity, CC50). As to conditions: [3H]thymidine incorporation; cell line not given.
Test in data set [3]: as above
As to conditions: human.

As a reminder, the IC50 is the midpoint of a concentration-inhibition curve. As a reminder, the CC50 is the concentration giving 50% cytotoxicity. The low end stands for harm at low concentration, the high end for better tolerance by the cells.

Read-outs that look alike come from different tables or passages of the source.

For the compound `CC(C)C#Cc1cc(N(C(=O)[C@H]2CC[C@H](C)CC2)[C@H]2CC[C@@H](OCCO)CC2)c(C(=O)O)s1` [Compound 61, 5-(3-Methylbut-1-yn-1-yl)-3-((N-4-cis-(2-hydroxy)-ethoxycyclohexyl)-(4-trans-methylcyclohexane)carboxamido)thiophene-2-carboxylic acid], in data set [1], the half-maximal inhibitory concentration (IC50) fell in the range of 0.1 to 1 µM. This compound also yielded a CC50 in data set [2] of 10 to 100 µM.
For `CN(C)C(=O)[C@H]1C[C@H](N(c2cc(C#CC(C)(C)C)sc2C(=O)O)C(=O)[C@H]2CC[C@H](C)CC2)C1` [Compound 63, 5-(3,3-Dimethylbut-1-yn-1-yl)-3-(N-(3-trans-(dimethylcarbamoyl)-cyclobutyl)-4-trans-methylcyclohexanecarboxamido)thiophene-2-carboxylic acid], the IC50 in data set [1] is below 0.1 µM. Besides, in data set [2], the CC50 was above 100 µM.
On to `Cn1cncc1CN(c1cc(C#CC(C)(C)C)sc1C(=O)O)C(=O)[C@H]1CC[C@H](C)CC1` [Compound 66, 5-(3,3-Dimethylbut-1-ynyl)-3-((trans)-4-methyl-N-((1-methyl-1H-imidazol-5-yl)methyl)cyclohexanecarboxamido)thiophene-2-carboxylic acid], for which the IC50 in data set [1] (Hepatitis C virus, W11.8, 96 h) is below 0.1 µM. The compound further gave a CC50 at 72 h in data set [3] above 100 µM.
The matching figures for `CC(C)(C)C#Cc1cc(N(CC(=O)O)C(=O)[C@H]2CC[C@H](C)CC2)c(C(=O)O)s1` [Compound 2, 3-[Carboxymethyl-(trans-4-methyl-cyclohexanecarbonyl)-amino]-5-(3,3-dimethyl-but-1-ynyl)-thiophene-2-carboxylic acid]: 0.1 to 1 µM and above 100 µM.
As for `Cc1ccc(C(=O)N(c2cc(C#CC(C)(C)C)sc2C(=O)O)[C@H]2CC[C@H](O)CC2)c(F)c1` [Compound 85, 5-(3,3-Dimethyl-but-1-ynyl)-3-[(2-fluoro-4-methyl-benzoyl)-(trans-4-hydroxy-cyclohexyl)-amino]thiophene-2-carboxylic acid], the IC50 in data set [1] (Hepatitis C virus, W11.8, 96 h) is below 0.1 µM. For the same compound, the CC50 at 72 h in data set [3] was in the range of 10 to 100 µM.
For `CC(C)(C)C#Cc1cc(N(C(=O)[C@H]2CC[C@H](C)CC2)C2CCC(F)(F)CC2)c(C(=O)O)s1` [Compound 14, 3-[(4,4-Difluoro-cyclohexyl)-(trans-4-methyl-cyclohexanecarbonyl)-amino]-5-(3,3-dimethyl-but-1-ynyl)-thiophene-2-carboxylic acid], the IC50 in data set [1] (Hepatitis C virus, W11.8, 96 h) was below 0.1 µM. This compound yielded a CC50 at 72 h in data set [3] of 10 to 100 µM.
As to `CC(CN1CCOCC1)N(c1cc(C#CC(C)(C)C)sc1C(=O)O)C(=O)[C@H]1CC[C@H](C)CC1` (relative stereo) [Compound 72, 5-(3,3-Dimethylbut-1-yn-1-yl)-3-(trans-4-methyl-N-(1-morpholinopropan-2-yl)cyclohexanecarboxamido)thiophene-2-carboxylic acid], the IC50 in data set [1] (Hepatitis C virus, W11.8, 96 h) is below 0.1 µM. For the same compound, the CC50 at 72 h in data set [3] is 10 to 100 µM.
The like results for `CC(C)(C)C#Cc1cc(N(CCN2CCOCC2)C(=O)[C@H]2CC[C@H](C)CC2)c(C(=O)O)s1` [Compound 48, 5-(3,3-Dimethylbut-1-yn-1-yl)-3-(trans-4-methyl-N-(2-morpholinoethyl)cyclohexanecarboxamido)thiophene-2-carboxylic acid] were, in that order, below 0.1 µM and 10 to 100 µM.
For `CC(C)(C)C#Cc1cc(N(C(=O)[C@H]2CC[C@H](C)CC2)[C@H]2CCNC2)c(C(=O)O)s1` [Compound 57, 5-(3,3-Dimethylbut-1-yn-1-yl)-3-((trans)-4-methyl-N-((S)-pyrrolidin-3-yl)cyclohexanecarboxamido)thiophene-2-carboxylic acid], in data set [1] (Hepatitis C virus, W11.8, 96 h), the IC50 is below 0.1 µM. In data set [3], this compound gave a CC50 at 72 h above 100 µM.
The like results for `CC(C)N(c1cc(C#CC(C)(C)O)sc1C(=O)O)C(=O)[C@H]1CC[C@H](C)CC1` [Compound 19, 5-(3-Hydroxy-3-methyl-but-1-ynyl)-3-[isopropyl-(trans-4-methyl-cyclohexanecarbonyl)-amino]-thiophene-2-carboxylic acid] were, in that order, 0.1 to 1 µM and above 100 µM.
